# Experimental data published in patent US9434763B2, “Derivatives of pyridinone as inhibitors for tissue transglutaminase” (ZEDIRA GMBH, priority 2012, dated 2016).
# Target: T1, His tagged recombinant human tissue transglutaminase (His6-rh-TG2) (Homo sapiens, UniProt P21980)
# T1 construct: purchased Zedira T002
# T1 sequence (P21980 1-687): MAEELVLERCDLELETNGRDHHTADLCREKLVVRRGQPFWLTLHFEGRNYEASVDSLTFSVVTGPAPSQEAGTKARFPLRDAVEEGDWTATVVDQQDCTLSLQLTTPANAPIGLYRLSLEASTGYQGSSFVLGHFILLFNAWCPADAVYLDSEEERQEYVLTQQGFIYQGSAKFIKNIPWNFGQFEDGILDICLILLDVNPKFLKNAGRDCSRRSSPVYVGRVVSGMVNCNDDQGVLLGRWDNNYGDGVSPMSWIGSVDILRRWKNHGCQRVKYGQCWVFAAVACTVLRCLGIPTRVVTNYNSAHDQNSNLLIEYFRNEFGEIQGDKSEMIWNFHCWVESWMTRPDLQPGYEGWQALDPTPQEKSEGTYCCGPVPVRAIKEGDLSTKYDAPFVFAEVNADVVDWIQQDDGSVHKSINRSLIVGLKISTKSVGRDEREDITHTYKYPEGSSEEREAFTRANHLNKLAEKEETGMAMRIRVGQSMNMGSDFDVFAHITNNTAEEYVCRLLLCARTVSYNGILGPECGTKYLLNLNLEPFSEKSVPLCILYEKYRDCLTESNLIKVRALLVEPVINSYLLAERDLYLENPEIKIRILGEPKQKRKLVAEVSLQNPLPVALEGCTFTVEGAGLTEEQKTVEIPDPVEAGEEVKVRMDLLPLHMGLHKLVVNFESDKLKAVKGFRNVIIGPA
# Experiment: Inactivation of human tissue transglutaminase, fluorescence assay with Abz-APE(CAD-DNP)QEA-OH
# Type: biochemical
# Conditions: substrate Abz-APE(CAD-DNP)QEA-OH, 37° C., pH=7.5
# Protocol: General Method for Inactivation of Human Tissue Transglutaminase
# 250 μg lyophilized His tagged recombinant human tissue transglutaminase (His6-rh-TG2, Zedira product T002) are reconstituted by adding 150 μl water (resulting buffer 50 mM NaH2PO4, 150 mM NaCl, pH=8.0).
# A 10 mM inhibitor stock solution in DMSO is prepared and is diluted with buffer (50 mM Tris-HCl, 10 mM CaCl2, 5 mM DTT, pH=7.5) each to the twentyfold of the concentration desired in the preparation (but at least 1/50 dilution resulting in a 2% DMSO concentration).
# 900 μl of an assay-solution consisting of 55.56 mM Tris, 11.11 mM CaCl2, 0.11% PEG8000, 5.56 mM DTT, 5.56 mM glycine methyl ester and 50 μM Abz-APE(CAD-DNP)QEA-OH, (Zedira product A102; patent No.: EP 1781807B1), pH=7.5 are added to a cuvette and heated in a measuring cell of a spectrophotometer to 37° C. 50 μl of the particular inhibitor solution are added to this solution (resulting in a concentration of less than 0.2% DMSO in the mixture).
# 7 μl of the transglutaminase solution reconstituted above are diluted with 51 μl buffer (50 mM Tris, 100 mM NaCl, 5 mM DTT, pH=7.5). 50 μl of this enzyme solution (10 μg His6-rhTG2) are added to the assay-solution containing the particular inhibitor concentration. It is incubated 5 min at 37° C. before measuring starts (λexc=313 nm and λem=418 nm, t=15 to 30 min).
# The evaluation of the resulting enzyme activity is done using the slope of the straight line obtained by the increase in fluorescence.
# To determine the non-inhibited enzyme activity, DMSO instead of inhibitor stock solution is used. IC50 values are determined by plotting the resulting enzyme activity against the logarithm of the inhibitor concentration. IC50 is defined as the concentration of inhibitor resulting in 50% of enzyme activity.
row,SMILES,IC50 [nM]
1,"CCOC(=O)/C=C/CC[C@H](NC(C)=O)C(=O)Nc1cccn(CC(=O)NCC2CCN(CC)CC2)c1=O [A48, (S,E)-Ethyl 6-acetamido-7-(1-(2-((1-ethylpiperidin-4-yl)methylamino)-2-oxoethyl)-2-oxo-1,2-dihydropyridin-3-ylamino)-7-oxohept-2-enoate]",1700
2,"CCOC(=O)/C=C/CC[C@H](NC(C)=O)C(=O)Nc1cccn(CC(=O)N[C@H](CC(C)C)C(=O)OC)c1=O [A33, (S,E)-Ethyl 6-acetamido-7-(1-(2-((R)-1-methoxy-4-methyl-1-oxopentan-2-ylamino)-2-oxoethyl)-2-oxo-1,2-dihydropyridin-3-ylamino)-7-oxohept-2-enoate]",493
3,"CCOC(=O)/C=C/CC[C@H](NC(=O)c1ccc2c(c1)OCCN2C)C(=O)Nc1cccn(CC(=O)NCCC(C)C)c1=O [A21, (S,E)-Ethyl 7-(1-(2-(isopentylamino)-2-oxoethyl)-2-oxo-1,2-dihydropyridin-3-ylamino)-6-(4-methyl-3,4-dihydro-2H-benzo[b][1,4]oxazine-7-carboxamido)-7-oxohept-2-enoate]",111
4,"CCOC(=O)/C=C/CC[C@H](NC(C)=O)C(=O)Nc1cccn(CC(=O)NCCN(CC)CC)c1=O [A25, (S,E)-Ethyl 6-acetamido-7-(1-(2-(2-(diethylamino)ethylamino)-2-oxoethyl)-2-oxo-1,2-dihydropyridin-3-ylamino)-7-oxohept-2-enoate]",4800
5,"CCOC(=O)/C=C/CC[C@H](NC(=O)c1ccc(S(N)(=O)=O)cc1)C(=O)Nc1cccn(CC(=O)NCCC(C)C)c1=O [A14, (S,E)-Ethyl 7-(1-(2-(isopentylamino)-2-oxoethyl)-2-oxo-1,2-dihydropyridin-3-ylamino)-7-oxo-6-(4-sulfamoylbenzamido)hept-2-enoate]",137
6,"CCOC(=O)/C=C/CC[C@H](NC(C)=O)C(=O)Nc1cccn(CC(=O)NCC(C)CC)c1=O (stereo partly drawn) [A50, (6S,E)-Ethyl 6-acetamido-7-(1-(2-(2-methylbutylamino)-2-oxoethyl)-2-oxo-1,2-dihydropyridin-3-ylamino)-7-oxohept-2-enoate]",119
7,"CCOC(=O)/C=C/CC[C@H](NC(=O)c1ccc(N2CCN(C)CC2)cc1)C(=O)Nc1cccn(CC(=O)NCCC(C)C)c1=O [A20, (S,E)-Ethyl 7-(1-(2-(isopentylamino)-2-oxoethyl)-2-oxo-1,2-dihydropyridin-3-ylamino)-6-(4-(4-methylpiperazin-1-yl)benzamido)-7-oxohept-2-enoate]",202
8,"CCOC(=O)/C=C/CC[C@H](NC(=O)CCC(=O)O)C(=O)Nc1cccn(CC(=O)NCC(C)CC)c1=O (stereo partly drawn) [A51, 4-((2S,E)-7-Ethoxy-1-(1-(2-(2-methylbutylamino)-2-oxoethyl)-2-oxo-1,2-dihydropyridin-3-ylamino)-1,7-dioxohept-5-en-2-ylamino)-4-oxobutanoic acid]",166
9,"CCOC(=O)/C=C/CC[C@H](NC(C)=O)C(=O)Nc1cccn(CC(=O)N[C@@H](CC(C)C)C(=O)OC)c1=O [A31, (S,E)-Ethyl 6-acetamido-7-(1-(2-((S)-1-methoxy-4-methyl-1-oxopentan-2-ylamino)-2-oxoethyl)-2-oxo-1,2-dihydropyridin-3-ylamino)-7-oxohept-2-enoate]",124
10,"CCOC(=O)/C=C/CC[C@H](NC(=O)CCC(=O)O)C(=O)Nc1cccn(CC(=O)NCCN2CCNC2=O)c1=O [A49, (S,E)-4-(7-Ethoxy-1,7-dioxo-1-(2-oxo-1-(2-oxo-2-(2-(2-oxoimidazolidin-1-yl)ethylamino)ethyl)-1,2-dihydropyridin-3-ylamino)hept-5-en-2-ylamino)-4-oxobutanoic acid]",1800
11,"CCOC(=O)/C=C/CC[C@H](NC(=O)c1ccc(N2CCCCC2)cc1)C(=O)Nc1cccn(CC(=O)NCCC(C)C)c1=O [A18, (S,E)-Ethyl 7-(1-(2-(isopentylamino)-2-oxoethyl)-2-oxo-1,2-dihydropyridin-3-ylamino)-7-oxo-6-(4-(piperidin-1-yl)benzamido)hept-2-enoate]",175
12,"CCOC(=O)/C=C/CC[C@H](NC(=O)c1cccnc1)C(=O)Nc1ccc(C)n(CC(=O)NCCc2ccccc2)c1=O [A8, (S,E)-Ethyl 7-(6-methyl-2-oxo-1-(2-oxo-2-(phenethylamino)ethyl)-1,2-dihydropyridin-3-ylamino)-6-(nicotinamido)-7-oxohept-2-enoate]",251
13,"CCOC(=O)/C=C/CC[C@H](NC(C)=O)C(=O)Nc1cccn(CC(=O)NC(C)C(C)C)c1=O (stereo partly drawn) [A55, (6S,E)-Ethyl 6-acetamido-7-(1-(2-(3-methylbutan-2-ylamino)-2-oxoethyl)-2-oxo-1,2-dihydropyridin-3-ylamino)-7-oxohept-2-enoate]",153
14,"CCOC(=O)/C=C/CC[C@H](NC(=O)CCC(=O)O)C(=O)Nc1cccn(CC(=O)NCCN(CC)CC)c1=O [A26, (S,E)-4-(1-(1-(2-(2-(Diethylamino)ethylamino)-2-oxoethyl)-2-oxo-1,2-dihydropyridin-3-ylamino)-7-ethoxy-1,7-dioxohept-5-en-2-ylamino)-4-oxobutanoic acid]",5400
15,"CCOC(=O)/C=C/CC[C@H](NC(C)=O)C(=O)Nc1cccn(CC(=O)N[C@@H](CC(C)(C)C)C(=O)OC)c1=O [A40, (S,E)-Ethyl 6-acetamido-7-(1-(2-((S)-1-methoxy-4,4-dimethyl-1-oxopentan-2-ylamino)-2-oxoethyl)-2-oxo-1,2-dihydropyridin-3-ylamino)-7-oxohept-2-enoate]",131

# The next molecules have a lower IC50 than those just listed; values first:
row,IC50 [nM],SMILES
1,83,"CCOC(=O)/C=C/CC[C@H](NS(=O)(=O)c1ccoc1)C(=O)Nc1cccn(CC(=O)NCCC(C)C)c1=O [A13, (S,E)-Ethyl 6-(furan-3-sulfonamido)-7-(1-(2-(isopentylamino)-2-oxoethyl)-2-oxo-1,2-dihydropyridin-3-ylamino)-7-oxohept-2-enoate]"
2,100,"CCOC(=O)/C=C/CC[C@H](NC(=O)OCc1ccccc1)C(=O)Nc1cccn(CC(=O)NCCc2c(C)cc(C)cc2C)c1=O [A1, (S,E)-Ethyl 6-(benzyloxycarbonylamino)-7-oxo-7-(2-oxo-1-(2-oxo-2-(2,4,6-trimethylphenethylamino)ethyl)-1,2-dihydropyridin-3-ylamino)hept-2-enoate]"
3,84,"CCOC(=O)/C=C/CC[C@H](NC(=O)c1ccsc1)C(=O)Nc1cccn(CC(=O)NCCC(C)C)c1=O [A12, (S,E)-Ethyl 7-(1-(2-(isopentylamino)-2-oxoethyl)-2-oxo-1,2-dihydropyridin-3-ylamino)-7-oxo-6-(thiophene-3-carboxamido)hept-2-enoate]"
4,53,"CCC(CC)CNC(=O)Cn1cccc(NC(=O)[C@H](CC/C=C/C(=O)OC)NC(=O)C(C)N)c1=O (stereo partly drawn) [A68, (6S,E)-Methyl 6-(2-aminopropanamido)-7-(1-(2-(2-ethylbutylamino)-2-oxoethyl)-2-oxo-1,2-dihydropyridin-3-ylamino)-7-oxohept-2-enoate 2,2,2-trifluoroacetate]"
5,73,"CCOC(=O)/C=C/CC[C@H](NC(=O)c1ccccc1)C(=O)Nc1cccn(CC(=O)NCCC(C)C)c1=O [A10, (S,E)-Ethyl 6-benzamido-7-(1-(2-(isopentylamino)-2-oxoethyl)-2-oxo-1,2-dihydropyridin-3-ylamino)-7-oxohept-2-enoate]"
6,88,"CCOC(=O)/C=C/CC[C@H](NC(=O)CCC(=O)O)C(=O)Nc1cccn(CC(=O)N[C@H](C(=O)OC)[C@H](C)CC)c1=O [A36, 4-((S,E)-7-Ethoxy-1-(1-(2-((2S,3R)-1-methoxy-3-methyl-1-oxopentan-2-ylamino)-2-oxoethyl)-2-oxo-1,2-dihydropyridin-3-ylamino)-1,7-dioxohept-5-en-2-ylamino)-4-oxobutanoic acid]"
7,104,"CCOC(=O)/C=C/CC[C@H](NC(=O)c1cccnc1)C(=O)Nc1cccn(CC(=O)NCCC(C)C)c1=O [A16, (S,E)-Ethyl 7-(1-(2-(isopentylamino)-2-oxoethyl)-2-oxo-1,2-dihydropyridin-3-ylamino)-6-(nicotinamido)-7-oxohept-2-enoate]"
